For one test, the target named is T1, zHDAC6-CD2 (Danio rerio, UniProt F8W4B7).
T1 construct: 8xHis-MBP (TEV-cleavable) (N, cleaved yes); made in house; host or cells: E. coli
T1 sequence (F8W4B7 440-798): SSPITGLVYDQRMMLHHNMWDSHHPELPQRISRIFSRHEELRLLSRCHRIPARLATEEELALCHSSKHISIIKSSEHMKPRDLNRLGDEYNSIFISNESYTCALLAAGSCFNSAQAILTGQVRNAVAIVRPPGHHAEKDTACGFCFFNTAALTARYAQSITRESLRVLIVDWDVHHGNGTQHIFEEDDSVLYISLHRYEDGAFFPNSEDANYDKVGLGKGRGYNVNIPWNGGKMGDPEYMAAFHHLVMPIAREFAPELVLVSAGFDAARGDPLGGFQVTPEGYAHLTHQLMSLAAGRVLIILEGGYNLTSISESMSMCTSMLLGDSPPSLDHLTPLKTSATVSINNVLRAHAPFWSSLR
Description: LC-MS time course of DFMO hydrolysis by zHDAC6-CD2. The format is biochemical, zebrafish. To be noted: absence of competitor. The protocol: In order to achieve a fast and sufficient conversion of DFMO to DFAcH before the addition of the competitor, and to minimize its effect on the first hydrolysis step, ITF3756 was added after a very short DFMO–enzyme pre-incubation (1 min). Subsequently, at each time point (Figure 4), an aliquot of the reaction mixture was mixed with acetonitrile to unfold the protein and quench the enzymatic activity. Each aliquot was analyzed by liquid LC-MS to determine the compound concentrations.
Experiments like those shown in panel A and C were carried out in the presence of 100 μM ITF3756, which was added after 1 min of ITF5924-enzyme (B) or ITF7209-enzyme (D) pre-incubation. All the experiments were carried out in triplicate. The lines simply join the average values of the experimental points. The incomplete recovery could be attributed to the relatively high enzyme concentration, possibly resulting in coprecipitation phenomena upon the addition of acetonitrile. […]
(§1) obtained in the absence of inhibitor. Such inhibition data were fitted in the GraphPad Prism software (version 10.2.2, La Jolla, CA, USA) using nonlinear regression analysis.
(§2) Eq. 1 P = v௦ ∙t + (vi − vs )[1 − exp(−kobs ∙t)] / kobs
(§3) In Eq. 1, P is the product concentration, expressed as fluorescence intensity, and t is the reaction time (in minutes) (7). For the determination of IC50 values, vo for fast-on inhibitors or vs for slow-on compounds were used to calculate the inhibition, as percentage with respect to the value obtained in the absence of inhibitor. Such inhibition data were fitted in GraphPad Prism software (version 10.2.2, La Jolla, CA, USA) using nonlinear regression analysis. […]
(§4) kobs values on inhibitor concentration was used to determine the mechanism of inhibition. “One-step” or a “two-step” (or “induced-fit) processes are the most common mechanisms of slow binding inhibition (Figure S2) and the resulting “kobs plots” should be linear for mechanism A and hyperbolic […]

The target in test [1] is T2, Human HDAC1 (Homo sapiens, UniProt Q13547).
T2 construct: purchased BPS Bioscience 50051
Set-up: method as in PMID 36528061. To be noted: included for comparison; ref [22]; read-out: HDACs IC50, HDAC1; cited from earlier work.

The target of test [2] is T3, second catalytic domain of zebrafish HDAC6 (zHDAC6-CD2) (Danio rerio, UniProt F8W4B7).
T3 construct: 8xHis-MBP (TEV-cleavable) (N, cleaved yes); made in house; host or cells: E. coli
T3 sequence (F8W4B7 440-798): T1 sequence (F8W4B7 440-798)
Set-up: method as in PMID 36528061. To be noted: included for comparison; ref [22]; read-out: HDACs IC50, zHDAC6-CD2; cited from earlier work.

The target of test [3] is T4, human HDAC6 (Homo sapiens, UniProt Q9UBN7).
T4 construct: purchased BPS Bioscience 50006
T4 sequence (Q9UBN7 1-1215): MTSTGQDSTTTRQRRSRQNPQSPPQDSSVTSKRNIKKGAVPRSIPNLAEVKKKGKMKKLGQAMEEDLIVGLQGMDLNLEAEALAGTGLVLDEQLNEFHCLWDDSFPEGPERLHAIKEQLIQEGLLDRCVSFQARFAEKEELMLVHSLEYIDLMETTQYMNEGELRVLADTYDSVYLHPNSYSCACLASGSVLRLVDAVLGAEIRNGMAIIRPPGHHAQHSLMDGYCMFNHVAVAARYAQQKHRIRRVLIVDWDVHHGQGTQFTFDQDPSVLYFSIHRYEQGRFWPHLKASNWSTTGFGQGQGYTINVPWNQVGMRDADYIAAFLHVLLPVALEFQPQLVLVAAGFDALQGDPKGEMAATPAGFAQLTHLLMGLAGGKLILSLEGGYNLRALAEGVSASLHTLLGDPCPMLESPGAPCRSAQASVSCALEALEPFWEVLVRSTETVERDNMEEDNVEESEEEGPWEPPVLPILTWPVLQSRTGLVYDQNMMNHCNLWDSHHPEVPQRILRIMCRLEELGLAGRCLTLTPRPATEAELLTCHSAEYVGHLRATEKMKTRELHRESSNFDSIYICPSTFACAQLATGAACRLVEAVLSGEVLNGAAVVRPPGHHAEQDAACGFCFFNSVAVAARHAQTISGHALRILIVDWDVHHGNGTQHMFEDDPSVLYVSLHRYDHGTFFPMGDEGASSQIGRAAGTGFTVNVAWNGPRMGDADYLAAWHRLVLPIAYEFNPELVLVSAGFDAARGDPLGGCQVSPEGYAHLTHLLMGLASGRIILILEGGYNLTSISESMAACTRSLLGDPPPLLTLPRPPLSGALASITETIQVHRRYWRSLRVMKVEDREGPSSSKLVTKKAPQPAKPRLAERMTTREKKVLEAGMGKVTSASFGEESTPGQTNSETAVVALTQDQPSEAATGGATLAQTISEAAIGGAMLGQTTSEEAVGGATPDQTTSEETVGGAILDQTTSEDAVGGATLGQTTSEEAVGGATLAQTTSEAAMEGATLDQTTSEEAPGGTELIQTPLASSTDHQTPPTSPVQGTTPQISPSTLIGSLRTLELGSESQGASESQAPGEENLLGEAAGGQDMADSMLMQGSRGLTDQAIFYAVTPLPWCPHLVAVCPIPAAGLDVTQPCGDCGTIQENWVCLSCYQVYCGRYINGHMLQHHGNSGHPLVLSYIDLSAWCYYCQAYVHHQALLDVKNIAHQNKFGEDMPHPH
Further details: method as in PMID 36528061. To be noted: included for comparison; ref [22]; read-out: HDACs IC50, HDAC6; cited from earlier work.

For test [4], the target named is T4, human HDAC6. Description: Fluorometric HDAC activity assay (Fluor de Lys Green), human full-length HDAC6. To be noted: for IC50: human full-length HDAC6, 25 °C, 3 µM Fluor de Lys Green, read-out: HDACs IC50, HDAC6. The format is biochemical. How it is done:
(§5) Optimized fluorometric enzymatic assays were used as previously reported (5, 6). Briefly, the time-course of the reaction was monitored at 25 °C in HDAC assay buffer [25 mM Tris/HCl, pH 8.0, 130 mM NaCl, 0.05% Tween-20, 10% Glycerol, 1 mg/mL bovine serum albumin (BSA), 0.5 mM tris(2-carboxyethyl)phosphine (TCEP) and 1% DMSO]. Human HDAC1 (Catalog 50051, BPS Bioscience, San Diego, CA, USA), human HDAC6 (Catalog 50006, BPS Bioscience, San Diego, CA, USA) and the second catalytic domain of zebrafish HDAC6 (zHDAC6-CD2) were used at catalytic concentrations of 710 pM, 62.5-125 pM and 0.12 nM, respectively. The Fluor de Lys Green substrate (Enzo Life Sciences, Farmingdale, New York, USA) was included at a concentration close to the Km value, 3 µM for HDAC6 forms and 25 µM for HDAC1. For fast binding inhibitors, the initial velocity (vo) was calculated as (∆F/min) from the slope of the straight line fitting the data points. In the case […]
velocity (vi), the steady-state velocity at long reaction times (vs), and the apparent first-order rate constant (kobs). In Eq 1, P is the product concentration, expressed as fluorescence intensity and t is the reaction time (in minutes) (7). All progress curves are generated by using GraphPad Prism software (version 10.2.2, La Jolla, CA, USA). For IC50 determination, vo for fast-on inhibitors or vs for slow-on compounds were used to calculate the inhibition, as percentage with respect to the value […]
as §1, §2, §3, §4
to equation 2, assuming the validity of mechanism B, where Ki is the dissociation constant of the […]

Test [5] has as its target T3, second catalytic domain of zebrafish HDAC6 (zHDAC6-CD2). Description: Fluorometric HDAC activity assay (Fluor de Lys Green), zHDAC6-CD2. The format is biochemical. To be noted: for IC50: 25 °C, 3 µM Fluor de Lys Green, read-out: HDACs IC50, zHDAC6-CD2. How it is done: as §5
velocity (vi), the steady-state velocity at long reaction times (vs), and the apparent first-order rate constant (kobs). In Eq 1, P is the product concentration, expressed as fluorescence intensity and t is the reaction time (in minutes) (7). All progress curves are generated by using GraphPad Prism software (version 10.2.2, La Jolla, CA, USA). For IC50 determination, vo for fast-on inhibitors or vs for slow-on compounds were used to calculate the inhibition, as percentage with respect to the value
(1 picture or pasted object on this page, not shown here) […]
as §1, §2, §3, §4
to equation 2, assuming the validity of mechanism B, where Ki is the dissociation constant of the initial EI complex, whereas k2 and k-2 are the rate constants describing the formation of the tight EI* complex. IC50 reflects the dissociation constant of the EI* complex (Ki*). […]
Samples were kept frozen at -80 °C until the LC-HRMS analysis. The experiment was performed in […]
(ITF6715, ITF7738) and hydrazide (ITF6712, ITF7739) derivatives in the samples was performed with respect to calibration curves obtained with varying concentrations of each compound. Raw data were then imported into GraphPad Prism (version 10.2.2, La Jolla, CA, USA) to generate Figure 4.
The LC-HRMS analysis was carried out using a Vanquish Flex UHPLC (Thermo Fisher Scientific, Waltham, Massachusetts, USA) and a high-resolution mass spectrometer Orbitrap QExactive Focus (Thermo Fisher Scientific, Waltham, Massachusetts, USA), equipped with a Heated Electrospray Ionization, operated in positive mode. A Full Scan analysis was set in the m/z range 50-500 amu. A XSelect HSS T3 50x2.1 mm, 2.5 µm chromatographic column (Waters, Milford, Massachusetts, USA) was used. Mobile phase A consisted of 0.1% formic acid in water and mobile phase B in 0.1% formic acid in acetonitrile. The flow rate was set to 0.5 mL/min, with a gradient program from 3 to 20% B in 3 minutes. The software Chromeleon CDS (version 7.3.2, Thermo Fisher Scientific, Waltham, Massachusetts, USA) was used for acquisition, processing, and signal integration. […]

The target of test [6] is T2, Human HDAC1. Description: Fluorometric HDAC activity assay (Fluor de Lys Green), human HDAC1. The format is biochemical. To be noted: 25 °C, 25 µM Fluor de Lys Green; read-out: HDACs IC50, HDAC1. How it is done:
as §5
velocity (vi), the steady-state velocity at long reaction times (vs), and the apparent first-order rate constant (kobs). In Eq 1, P is the product concentration, expressed as fluorescence intensity and t is the reaction time (in minutes) (7). […]
In Eq. 1, P is the product concentration, expressed as fluorescence intensity, and t is the reaction time (in minutes) (7). […]

The mark [7] stands for this setting: 5 µM DFMO, 5 µM zHDAC6-CD2, 25 °C.

Where two headings read alike, the source gives them in different places.

T2 sequence (Q13547 whole entry): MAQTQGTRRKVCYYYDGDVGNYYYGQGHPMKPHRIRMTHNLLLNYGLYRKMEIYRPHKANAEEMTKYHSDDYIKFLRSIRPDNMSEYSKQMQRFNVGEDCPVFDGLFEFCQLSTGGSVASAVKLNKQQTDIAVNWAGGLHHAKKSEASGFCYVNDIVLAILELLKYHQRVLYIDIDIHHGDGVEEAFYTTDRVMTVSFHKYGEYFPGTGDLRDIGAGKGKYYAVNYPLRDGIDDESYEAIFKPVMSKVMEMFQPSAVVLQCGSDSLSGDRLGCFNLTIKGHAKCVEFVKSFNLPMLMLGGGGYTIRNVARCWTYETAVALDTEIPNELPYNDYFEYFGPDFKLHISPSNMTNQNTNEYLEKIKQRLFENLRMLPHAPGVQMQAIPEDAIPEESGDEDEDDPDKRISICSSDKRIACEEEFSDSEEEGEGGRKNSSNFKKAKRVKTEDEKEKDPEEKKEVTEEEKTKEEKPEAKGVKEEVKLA

Broadly, the IC50 is the point on the concentration scale where inhibition reaches its midpoint. Regarding `FC(F)c1nnc(-c2ccc(Cn3cc(-c4ccc(NC5=NCCN5)cc4)nn3)cc2)o1` [ITF5924], on zHDAC6-CD2 (setting [7]), the “Time after which DFMO substantially disappeared” value was 10 min. The values for the IC50 (at Human HDAC1 [1]; in test [2]; at human HDAC6 [3]) were more than 100 µM, 0.0078 ± 0.0004 µM and 0.0077 ± 0.0003 µM, respectively.

As to `NNC(=O)c1ccc(Cn2cc(-c3ccc(NC4=NCCN4)cc3)nn2)cc1` [ITF6712], the “Amount of hydrazide product detectable” value on zHDAC6-CD2 (hydrolysis of 5 µM ITF5924 by 5 µM zHDAC6-CD2, 25 °C) turned out to be 13%. Further, the IC50 on Human HDAC1 [1] is more than 100 µM; on human HDAC6 [3] it was 0.33 µM.

For `O=C(NNC(=O)C(F)F)c1ccc(Cn2cc(-c3ccc(NC4=NCCN4)cc3)nn2)cc1` [ITF6715], the half-inhibitory concentration (IC50) was more than 100 µM at Human HDAC1 [1], 2.3 µM in test [2] and 1.6 µM at human HDAC6 [3].

Broadly, the Ki is a dissociation constant, usually derived from enzyme kinetics or from competition with a known ligand. Consider `CC(C)(C)c1cn(Cc2ccc(-c3nnc(C(F)F)o3)s2)nn1` [ITF7209], for which, at zHDAC6-CD2 (setting [7]), the “Rate of DFMO consumption compared to ITF5924” value was “slower rate of DFMO consumption”. Also, the “k2 (rate constant, formation of the tight EI* complex)” value on human HDAC6 [4] (human HDAC6, fit of kobs to Eq. 2) came to 0.52 ± 0.01 min⁻¹; in test [5] (zHDAC6-CD2, fit of kobs to Eq. 2), 0.86 ± 0.02 min⁻¹. Besides, the Mode of inhibition entry on human HDAC6 [4] (human full-length HDAC6, progress curves) is “slow binding inhibitor”; in test [5] (zHDAC6-CD2, progress curves), “slow binding inhibitor”. In addition, the 50% inhibitory concentration (IC50) in test [5] was 0.0067 ± 0.0004 µM. In addition, the Ki in test [5] (zHDAC6-CD2, fit of kobs to Eq. 2, induced-fit model, read-out: Ki (dissociation constant of the initial EI complex)) is 0.98 ± 0.04 µM.

In the case of `CC(C)(C)c1cn(Cc2ccc(C(=O)NNC(=O)C(F)F)s2)nn1` [ITF7738], the IC50 on human HDAC6 [4] was more than 100 µM; on Human HDAC1 [6], more than 100 µM; in test [5], 72 µM.

Consider `CC(C)(C)c1cn(Cc2ccc(C(=O)NN)s2)nn1` [ITF7739], for which the IC50 at human HDAC6 [4] is 5.1 µM; on Human HDAC1 [6], more than 100 µM; in test [5] it was 1 µM.
